Laboratory results: patent US12215116B2, “Arginase inhibitors and methods of use” (Merck Sharp & Dohme LLC, priority 2018, dated 2025)
Structures can show the parent of a compound that is named as a salt.

Tested on: corpus cavernosum of the diabetic man
Assay: not given
Conditions: ex vivo; cited from earlier work

Structure (SMILES) | nitric oxide biosynthesis
N[C@@H](CCCCB(O)O)C(=O)O [ABH, (S)-2-amino-6-boronohexanoic acid] | restores nitric oxide biosynthesis

Tested on: opossum internal anal sphincter muscle
Assay: not given
Conditions: cited from earlier work

Structure (SMILES) | relaxation of internal anal sphincter muscle
N[C@@H](CCCCB(O)O)C(=O)O [ABH, (S)-2-amino-6-boronohexanoic acid] | relax this muscle

Tested on: animal model of multiple sclerosis (experimental autoimmune encephalomyelitis)
Assay: not given
Conditions: cited from earlier work

Structure (SMILES) | disease score
N[C@@H](CCCCB(O)O)C(=O)O [ABH, (S)-2-amino-6-boronohexanoic acid] | improves the disease score

Tested on: live female rabbits
Assay: not given
Conditions: cited from earlier work

Structure (SMILES) | engorgement response in the genitalia
N[C@@H](CCCCB(O)O)C(=O)O [ABH, (S)-2-amino-6-boronohexanoic acid] | enhances the engorgement response

Target: T1, Arginase (ARG1 enzyme) (Homo sapiens, UniProt P05089)
T1 construct: made in house; host or cells: Escherichia coli
T1 sequence (P05089 1-322): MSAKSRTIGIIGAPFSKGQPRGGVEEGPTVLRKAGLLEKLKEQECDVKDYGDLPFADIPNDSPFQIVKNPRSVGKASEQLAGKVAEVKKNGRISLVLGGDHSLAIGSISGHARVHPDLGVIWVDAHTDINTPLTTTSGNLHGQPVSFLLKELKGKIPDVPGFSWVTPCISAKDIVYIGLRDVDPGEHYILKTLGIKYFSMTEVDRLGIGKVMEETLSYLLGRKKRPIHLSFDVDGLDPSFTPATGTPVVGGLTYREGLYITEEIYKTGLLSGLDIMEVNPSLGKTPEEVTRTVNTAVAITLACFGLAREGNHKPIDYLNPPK
Assay: Arginase Thioornithine Generating Assay (TOGA)
Format: biochemical
Conditions: 1.88 nM arginase, thioarginine substrate, fluorescence readout
Protocol: Arginase Thioornithine Generating Assay (TOGA)
Compounds were serially diluted in ten 3-fold steps in DMSO starting from 10 mM DMSO stocks. Compound dilutions or DMSO alone were then dispensed from the dilution plate into a Greiner black 384-well assay plate (catalog #781086) using an Echo 555 acoustic liquid handler (Labcyte).
Arginase protein was recombinantly expressed in Escherichia coli. Purified protein was then diluted in assay buffer (50 mM Tris pH 7.5, 50 mM NaCl, 1 mM manganese chloride, 0.05% bovine serum albumin to obtain a final Arginase concentration of 1.88 nM. Arginase solution (20 μL) or buffer alone (20 μL) were dispensed to wells of the assay plate using a BioRAPTR liquid dispenser (Beckman Coulter). Assay plates containing compound and ARG1 enzyme were incubated at room temperature for 30 minutes. Afterwards, 5 μL of 2.5 mM thioarginine (Cayman Chemicals) in assay buffer were added to each well of the assay plate using a BioRAPTR liquid dispenser. Plates were incubated at room temperature for 60 minutes and reactions were quenched by addition of 15 μL of […] 7-Diethylamine-3-(4-maleimidophenyl)-4-methylcoumarin (Sigma Chemical) in 70% ethanol. Plates were briefly shaken to mix and the fluorescence was measured in an Spectramax plate reader (Molecular Devices) with a 410 nm excitation wavelength and an 490 nm emission wavelength.
Potencies were calculated by […] to the four parameter logistic IC50 equation.

Structure (SMILES) | IC50
O=C(O)[C@H]1N[C@H](CO)C[C@H]1CCCB(O)O [Example 63, (2S,3R,5S)-3-(3-boronopropyl)-5-(hydroxymethyl)pyrrolidine-2-carboxylic acid] | 7.71 nM
C[C@@H]1C[C@@H](CCCB(O)O)[C@@H](C(=O)O)N1 [Example 64, (2S,3R,5R)-3-(3-boronopropyl)-5-methylpyrrolidine-2-carboxylic acid] | 6.62 nM
O=C(O)[C@H]1NC[C@@]1(CO)CCCB(O)O [Example 65, (2S,3S)-3-(3-boronopropyl)-3-(hydroxymethyl)azetidine-2-carboxylic acid] | 13 nM
CN1C[C@@](CO)(CCCB(O)O)[C@H]1C(=O)O [Example 66, (2S,3S)-3-(3-boronopropyl)-3-(hydroxymethyl)-1-methylazetidine-2-carboxylic acid] | 269 nM
NC[C@@]1(CCCB(O)O)CN[C@@H]1C(=O)O [Example 67, (2S,3S)-3-(aminomethyl)-3-(3-boronopropyl)azetidine-2-carboxylic acid] | 8 nM
CC(C)(O)[C@@]1(CCCB(O)O)CN[C@@H]1C(=O)O [Example 68, (2S,3S)-3-(3-boronopropyl)-3-(2-hydroxypropan-2-yl)azetidine-2-carboxylic acid] | 343 nM
C[C@@]1(CCCB(O)O)[C@H](O)CN[C@@H]1C(=O)O [Example 69, (2S,3S,4S)-3-(3-boronopropyl)-4-hydroxy-3-methylpyrrolidine-2-carboxylic acid] | > 10000 nM
CC(C)[C@H](N)C(=O)N[C@H]1CN[C@H](C(=O)O)[C@]1(C)CCCB(O)O [Example 70, (2S,3R,4R)-4-((S)-2-amino-3-methylbutanamido)-3-(3-boronopropyl)-3-methylpyrrolidine-2-carboxylic acid] | 83 nM
C[C@]1(CCCB(O)O)[C@@H](C(=O)O)NC[C@@H]1N [Example 71, (2S,3R,4R)-4-amino-3-(3-boronopropyl)-3-methylpyrrolidine-2-carboxylic acid] | 17 nM
C[C@@]1(CCCB(O)O)CCN[C@]1(C)C(=O)O [Example 72, (2S,3R)-3-(3-boronopropyl)-2,3-dimethylpyrrolidine-2-carboxylic acid] | 119 nM
C[C@H]1N[C@H](C(=O)O)[C@](C)(CCCB(O)O)[C@H]1O [Example 74A, (2S,3S,4R,5R)-3-(3-boronopropyl)-4-hydroxy-3,5-dimethylpyrrolidine-2-carboxylic acid] | 48.6 nM
C[C@H]1N[C@H](C(=O)O)[C@](C)(CCCB(O)O)[C@@H]1O [Example 74B] | > 10000 nM
CC1(C)N[C@H](C(=O)O)[C@](C)(CCCB(O)O)[C@@H]1O [Example 75] | > 10000 nM
C[C@]1(CCCB(O)O)[C@@H](C(=O)O)NC[C@@H]1O [Example 76, (2S,3S,4R)-3-(3-boronopropyl)-4-hydroxy-3-methylpyrrolidine-2-carboxylic acid] | 17.7 nM
C[C@@]1(CCCB(O)O)[C@@H](CN)CN[C@@H]1C(=O)O [Example 77, (2S,3R,4S)-4-(aminomethyl)-3-(3-boronopropyl)-3-methylpyrrolidine-2-carboxylic acid] | 85 nM
CN(C)C[C@H]1CN[C@H](C(=O)O)[C@]1(C)CCCB(O)O [Example 78, (2S,3R,4R)-3-(3-boronopropyl)-4-((dimethylamino)methyl)-3-methylpyrrolidine-2-carboxylic acid] | > 10000 nM
CNC[C@H]1CN[C@H](C(=O)O)[C@]1(C)CCCB(O)O [Example 79] | 66.3 nM
C[C@@]1(CCCB(O)O)[C@@H](CO)CN[C@@H]1C(=O)O [Example 80, (2S,3R,4R)-3-(3-boronopropyl)-4-(hydroxymethyl)-3-methylpyrrolidine-2-carboxylic acid] | 27.3 nM

Structure (SMILES) | IC50
C[C@]1(CCCB(O)O)[C@@H](C(=O)O)NC[C@@H]1C(F)F [Example 81, (2S,3R,4R)-3-(3-boronopropyl)-4-(difluoromethyl)-3-methylpyrrolidine-2-carboxylic acid] | 139 nM
O=C(O)[C@H]1NC[C@H](O)[C@@H]1CCCB(O)O [Example 82, (2S,3R,4R)-3-(3-boronopropyl)-4-hydroxypyrrolidine-2-carboxylic acid] | > 10000 nM
O=C(O)[C@H]1NCC[C@@]1(CO)CCCB(O)O [Example 83, (2S,3S)-3-(3-boronopropyl)-3-(hydroxymethyl)pyrrolidine-2-carboxylic acid] | 19.3 nM
O=C(O)[C@H]1NCC[C@]1(CCCB(O)O)C(F)F [Example 84, (2S,3S)-3-(3-boronopropyl)-3-(difluoromethyl)pyrrolidine-2-carboxylic acid] | 28.9 nM
NC[C@@]1(CCCB(O)O)CCN[C@@H]1C(=O)O [Example 85, (2S,3R)-3-(aminomethyl)-3-(3-boronopropyl)pyrrolidine-2-carboxylic acid] | 7.18 nM
CN(C)C[C@@]1(CCCB(O)O)CCN[C@@H]1C(=O)O [Example 86, (2S,3R)-3-(3-boronopropyl)-3-((dimethylamino)methyl)pyrrolidine-2-carboxylic acid] | 119 nM
CNC[C@@]1(CCCB(O)O)CCN[C@@H]1C(=O)O [Example 87, (2S,3R)-3-(3-boronopropyl)-3-((methylamino)methyl)pyrrolidine-2-carboxylic acid] | 7 nM
N#C[C@@]1(CCCB(O)O)CCN[C@@H]1C(=O)O [Example 88, (2S,3S)-3-(3-boronopropyl)-3-cyanopyrrolidine-2-carboxylic acid] | 13.4 nM
NC(=O)[C@@]1(CCCB(O)O)CCN[C@@H]1C(=O)O [Example 89, (2S,3S)-3-(3-boronopropyl)-3-carbamoylpyrrolidine-2-carboxylic acid] | 289 nM
O=C(O)C[C@@]1(CCCB(O)O)[C@H](O)CN[C@@H]1C(=O)O [Example 90, (2S,3R,4S)-3-(3-boronopropyl)-3-(carboxymethyl)-4-hydroxypyrrolidine-2-carboxylic acid] | 2910 nM
O=C(O)[C@H]1NCC(CO)[C@H]1CCCB(O)O (stereo partly drawn) [Example 91, (2S,3R)-3-(3-boronopropyl)-4-(hydroxymethyl)pyrrolidine-2-carboxylic acid] | 20 nM
O=C(O)[C@H]1NC[C@@H](O)[C@@]1(F)CCCB(O)O [Example 92A, (2R,3R,4R)-3-(3-boronopropyl)-3-fluoro-4-hydroxypyrrolidine-2-carboxylic acid] | > 10000 nM
O=C(O)[C@H]1NC[C@H](O)[C@@]1(F)CCCB(O)O [Example 92B, (2R,3R,4S)-3-(3-boronopropyl)-3-fluoro-4-hydroxypyrrolidine-2-carboxylic acid] | 124 nM
O=C(O)[C@H]1NC[C@@H](O)[C@]1(F)CCCB(O)O [Example 92C, (2R,3S,4R)-3-(3-boronopropyl)-3-fluoro-4-hydroxypyrrolidine-2-carboxylic acid] | > 10000 nM
O=C(O)[C@H]1NCC[C@H]1SCCB(O)O [Example 93, (2R,3R)-3-((2-boronoethyl)thio)pyrrolidine-2-carboxylic acid hydrochloride] | 92.1 nM
N[C@@]1(C(=O)O)CNC[C@@]1(CO)CCCB(O)O [Example 94C] | > 10000 nM
N[C@]1(C(=O)O)CNC[C@]1(CO)CCCB(O)O [Example 94D] | > 10000 nM

Tested on: live male rabbits
Assay: not given
Conditions: cited from earlier work

Structure (SMILES) | erectile response
N[C@@H](CCCCB(O)O)C(=O)O [ABH, (S)-2-amino-6-boronohexanoic acid] | enhances the erectile response

Tested on: rabbit and human penile corpus cavernosum
Assay: not given
Conditions: rabbit and human tissue; cited from earlier work

Structure (SMILES) | nitric oxide-dependent relaxation of penile corpus cavernosum
N[C@@H](CCCCB(O)O)C(=O)O [ABH, (S)-2-amino-6-boronohexanoic acid] | enhances the nitric oxide-dependent relaxation of this tissue

Tested on: guinea pigs
Assay: not given
Conditions: nebulizer treatment, allergic asthma model; cited from earlier work

Structure (SMILES) | airway hyperresponsiveness
N[C@@H](CCCCB(O)O)C(=O)O [ABH, (S)-2-amino-6-boronohexanoic acid] | prevents airway hyperresponsiveness
